Assay results published in patent US20040248958A1, “Heterocyclic amide derivatives” (priority 2001, published 2004).
Like-named read-outs stand apart in the source and are kept apart here.

Test: logP determination by HPLC on reversed-phase column (EEC Directive 79/831 Annex V.A8)
Format: physicochemical
Details: reversed-phase HPLC column (C18), preparation examples
Procedure: The logP values indicated were determined in accordance with EEC Directive 79/831 Annex V.A8 by means of HPLC (High Performance Liquid Chromatography) on a reversed-phase column (C 18). Temperature: 43° C. (a) Eluents for determination in the acidic range: 0.1% aqueous phosphoric acid, acetonitriie; linear gradient from 10% acetonitrile to 90% acetonitrile. (b) Eluents for determination in the neutral range: 0.01 molar aqueous phosphate buffer solution, acetonitrile; linear gradient from 10% acetonitrile to 90% acetonitrile.

[1] = pH 2.3, HPLC C18, 43° C., read-out: logP (pH 2.3)

Cc1cc(C)cc(-c2nc(C)c(C)n2N)c1 [II-1]
chromatographic logP [1]: 0.96

CCc1ccc(C(=O)Nn2c(-c3cc(C)cc(C)c3)nc(C)c2C)cc1 [Example I-1]
chromatographic logP [1]: 1.97

Cc1ccc(C(=O)Nn2c(-c3ccccc3)nc(C)c2C)cc1 [Example I-2]
chromatographic logP (pH 7.5, HPLC C18, 43° C., read-out: logP (pH 7.5)): 2.17

Cc1ccc(S(=O)(=O)Nn2c(-c3cc(C)cc(C)c3)nc(C)c2C)cc1 [IV-1]
chromatographic logP [1]: 1.69
